Results taken from the supplement of paper PMC10307832.

compound: COc1cccc2c1C(=O)c1c(O)c3c(c(O)c1C2=O)C[C@@](O)(C(=O)CO)C[C@@H]3O[C@H]1C[C@H](N)[C@H](O)[C@H](C)O1 [Doxorubicin] + O=C(c1cc(Cc2n[nH]c(=O)c3ccccc23)ccc1F)N1CCN(C(=O)C2CC2)CC1 [Olaparib] (partner 8 µM); test: relative viability (nuclei count vs DMSO), 5 days (fraction); higher = more cells survive; conditions: first compound 0.001 µM
Procedure, shortened: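 A single step with final 0.05% Triton X-100, 1% formaldehyde and 1 ug/ml Hoechst fixed the cells and stained nuclei 5 days after treatment. Lung cancer cell lines in 1536-well plates had been treated by pin tool the day after seeding with one drug alone or a fixed anchor-drug dose plus five library-drug doses (not always all listed) in √10 steps, and nuclei were counted on 4× images. Relative viability is the ratio of nuclei in treated wells to nuclei in vehicle wells, taken as the median of duplicate plates.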

Cell Line | relative viability
NCI-H2342 | 0.41
RERF-LC-KJ | 0.906
NCI-H1651 | 0.216
EBC-1 | 0.682
NCI-H1734 | 0.294
NCI-H2009 | 0.735
NCI-H596 | 0.593
SK-LU-1 | 0.512
SW 1573 | 0.411
LCLC-97TM1 | 0.398
NCI-H661 | 0.674
NCI-H2228 | 0.579
EMC-BAC-2 | 0.487
NCI-H2087 | 0.652
Calu-6 | 0.554
HCC-44 | 0.929
NCI-H1703 | 0.377
NCI-H727 | 0.821
LK-2 | 0.713
NCI-H2126 | 0.908
NCI-H1648 | 0.618
H3255 | 0.541

Cell Line | relative viability
COR-L23 | 0.361
COR-L 105 | 0.748
LC-2-ad | 0.343
LU99A | 0.235
ChaGo-K-1 | 0.437
NCI-H358 | 0.592
NCI-H322M | 0.731
IA-LM | 0.796
HCC-78 | 0.866
NCI-H522 | 0.524
LXF-289 | 1.03
BEN | 1.07
HARA | 1.05
HCC-827 | 0.653
NCI-H520 | 0.318
NCI-H2023 | 0.454
A-427 | 0.764
NCI-H647 | 0.503
PC-3 [JPC-3] | 1.04
NCI-H1755 | 0.837
NCI-H650 | 0.418
NCI-H3122 | 0.535

Cell Line | relative viability
NCI-H441 | 0.545
NCI-H1395 | 0.445
201T | 0.849
NCI-H1975 | 0.746
HOP-62 | 0.396
NCI-H1299 | 0.937
NCI-H2405 | 0.864
NCI-H1355 | 0.732
NCI-H838 | 0.795
CAL-12T | 0.7
EPLC-272H | 0.767
NCI-H2347 | 0.6
NCI-H1915 | 0.256
NCI-H1437 | 0.639
NCI-H460 | 0.366
NCI-H1792 | 0.506
NCI-H2085 | 0.788
HCC-15 | 0.731
NCI-H1944 | 0.403
EKVX | 0.862

same assay, conditions: first compound 0.003162 µM

Cell Line | relative viability
NCI-H2342 | 0.525
RERF-LC-KJ | 0.784
NCI-H1651 | 0.182
EBC-1 | 0.735
NCI-H1734 | 0.689
NCI-H2009 | 0.557
NCI-H596 | 0.667
SK-LU-1 | 0.451
SW 1573 | 0.298
LCLC-97TM1 | 0.514
NCI-H661 | 0.881
NCI-H2228 | 0.717
EMC-BAC-2 | 0.367
NCI-H2087 | 0.528
Calu-6 | 0.536
HCC-44 | 1
NCI-H1703 | 0.332
NCI-H727 | 0.811
LK-2 | 0.672
NCI-H2126 | 0.962
NCI-H1648 | 1.05
NCI-H1793 | 0.93
H3255 | 0.553

Cell Line | relative viability
COR-L23 | 0.38
COR-L 105 | 0.698
LC-2-ad | 0.679
LU99A | 0.264
ChaGo-K-1 | 0.408
NCI-H358 | 0.535
NCI-H322M | 0.765
IA-LM | 0.889
HCC-78 | 0.994
A549 | 0.437
NCI-H522 | 0.658
LXF-289 | 1.12
BEN | 1.09
HARA | 0.8
SW 900 | 1.16
HCC-827 | 0.65
NCI-H520 | 0.337
LOU-NH91 | 0.877
NCI-H2023 | 0.336
A-427 | 0.672
NCI-H647 | 0.47
PC-3 [JPC-3] | 0.944
NCI-H1755 | 0.911

Cell Line | relative viability
NCI-H650 | 0.494
NCI-H3122 | 0.616
NCI-H441 | 0.518
NCI-H1395 | 0.506
201T | 0.825
NCI-H1975 | 0.896
HOP-62 | 0.56
NCI-H1299 | 0.949
NCI-H2405 | 0.847
NCI-H1355 | 0.688
NCI-H838 | 0.759
CAL-12T | 0.668
NCI-H1666 | 0.701
EPLC-272H | 1.01
NCI-H2347 | 0.562
NCI-H1915 | 0.258
NCI-H1437 | 0.631
NCI-H460 | 0.419
NCI-H1792 | 0.473
NCI-H2085 | 0.825
HCC-15 | 0.657
NCI-H1944 | 0.37
EKVX | 0.882

same assay, conditions: first compound 0.01 µM

Cell Line | relative viability
NCI-H2342 | 0.445
RERF-LC-KJ | 0.55
NCI-H1651 | 0.205
EBC-1 | 0.73
NCI-H1734 | 0.644
NCI-H2009 | 0.64
NCI-H596 | 0.685
SK-LU-1 | 0.397
SW 1573 | 0.163
LCLC-97TM1 | 0.438
NCI-H661 | 0.681
NCI-H2228 | 0.682
EMC-BAC-2 | 0.355
NCI-H2087 | 0.445
Calu-6 | 0.457
HCC-44 | 0.997
NCI-H1703 | 0.309
LK-2 | 0.585
NCI-H2126 | 0.916
NCI-H1648 | 0.5
NCI-H1793 | 0.759
H3255 | 0.541
COR-L23 | 0.29
COR-L 105 | 0.668
LC-2-ad | 0.707
LU99A | 0.287
ChaGo-K-1 | 0.352
